Values quoted from earlier work, collected in US20190307762A1, “METHODS AND COMPOSITIONS FOR THE TREATMENT OF TRAUMA AND STRESSOR-RELATED DISORDERS” (priority 2016, published 2019).

How the values were obtained:
[1] = for Equivalent amount: dose equivalent to 20 mg hydrocortisone; for Hydrocortisone equivalent (1 mg of the glucocorticoid corresponds to the listed amount in mg of hydrocortisone): per 1 mg of the glucocorticoid
[2] = tested on: histamine (H1.H2), serotonin (5-HT2), dopamine (D2.D1), adrenergic (al) receptors; settings: in vitro; decreasing order H1.H2, 5-HT2, D2.D1, al
cholinergic receptors = settings: in vitro
[3] = tested on: serotonin (5-HT) or noradrenaline reuptake
[4] = tested on: generalized anxiety disorders; settings: versus placebo and alprazolam
[5] = in vivo
neurological tissue = settings: preclinical; linked to binding to sigma one receptors
sigma 2 receptors = sigma 2 receptors (Homo sapiens, UniProt Q5BJF2)
cytochrome P-450 3A4 = cytochrome P-450 3A4 (Homo sapiens, UniProt P08684)
Chain of cytochrome P-450 3A4 (P08684 whole entry): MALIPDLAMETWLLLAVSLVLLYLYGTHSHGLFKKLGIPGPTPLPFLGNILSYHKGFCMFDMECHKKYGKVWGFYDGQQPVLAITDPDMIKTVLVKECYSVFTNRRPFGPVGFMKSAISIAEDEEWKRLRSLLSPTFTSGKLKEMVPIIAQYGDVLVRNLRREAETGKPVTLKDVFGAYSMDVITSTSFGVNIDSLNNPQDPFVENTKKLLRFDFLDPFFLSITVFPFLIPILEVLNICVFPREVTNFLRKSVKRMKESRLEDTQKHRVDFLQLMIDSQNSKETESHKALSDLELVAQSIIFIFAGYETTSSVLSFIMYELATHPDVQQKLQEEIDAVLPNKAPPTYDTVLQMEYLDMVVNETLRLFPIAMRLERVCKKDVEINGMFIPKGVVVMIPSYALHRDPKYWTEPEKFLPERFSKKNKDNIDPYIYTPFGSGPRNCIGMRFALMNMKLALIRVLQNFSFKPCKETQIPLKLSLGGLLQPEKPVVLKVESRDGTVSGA

Chain of sigma 2 receptors (Q5BJF2 whole entry): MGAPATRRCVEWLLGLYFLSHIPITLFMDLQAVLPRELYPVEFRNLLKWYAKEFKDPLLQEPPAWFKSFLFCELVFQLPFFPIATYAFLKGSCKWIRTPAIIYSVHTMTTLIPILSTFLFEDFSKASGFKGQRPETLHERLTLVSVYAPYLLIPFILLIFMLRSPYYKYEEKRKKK

Row | Compound | Equivalent amount [1] | Hydrocortisone equivalent (1 mg of the glucocorticoid corresponds to the listed amount in mg of hydrocortisone) [1] | further results
1 | C[C@]12C=CC(=O)C=C1CC[C@H]1[C@@H]3C[C@@H](O)[C@](O)(C(=O)CO)[C@@]3(C)C[C@H](O)[C@@]12F [Triamcinolone] | 4 mg | 5 mg | 
2 | C[C@H]1C[C@H]2[C@@H]3CCC4=CC(=O)C=C[C@]4(C)[C@@]3(F)[C@@H](O)C[C@]2(C)[C@@]1(O)C(=O)CO [Betarnethasone] | 0.75 mg | 26.66 mg | 
3 | OCCN1CCN(CCCN2c3ccccc3C=Cc3ccccc32)CC1 [opipramol] |  |  | receptor blockade [2]: blocks the following receptors in decreasing order; receptor blockade (cholinergic receptors): very weakly; reuptake inhibiting properties [3]: without reuptake inhibiting properties; sigma ligand strength (sigma): strong sigma ligand; levels of cGMP (cGMP): induces increased levels of cGMP; anxiolytic efficacy [4]: superiority over placebo and similar efficacy to alprazolam; risk of drug dependence [5]: no risk of drug dependence; protection against glutamate mediated toxicity (neurological tissue): ability to protect neurological tissue against the effects of glutamate mediated toxicity; signaling at sigma 2 receptors (sigma 2 receptors): down regulate signaling at sigma 2 receptors; CYP substrate (cytochrome P-450 3A4): CYP3A substrate
4 | C[C@]12CCC(=O)C=C1CC[C@@H]1[C@@H]2[C@@H](O)C[C@@]2(C)[C@H]1CC[C@]2(O)C(=O)CO [Hydrocortisone] | 20 mg | 1 mg | 
5 | C[C@]12C=CC(=O)C=C1CC[C@@H]1[C@@H]2[C@@H](O)C[C@@]2(C)[C@H]1CC[C@]2(O)C(=O)CO [Prednisolone] | 5 mg | 4 mg | 
6 | C[C@@H]1C[C@H]2[C@@H]3C[C@H](F)C4=CC(=O)C=C[C@]4(C)[C@H]3[C@@H](O)C[C@]2(C)[C@@]1(O)C(=O)CO [Pararnethasone] | 2 mg | 10 mg | 
7 | CC(=O)OCC(=O)[C@@]1(O)CC[C@H]2[C@@H]3CCC4=CC(=O)CC[C@]4(C)[C@H]3C(=O)C[C@@]21C [Cortisone acetate] | 25 mg | 0.8 mg | 
